Assay results: US5011836A, “Agents for the treatment of acute and chronic obstructive respiratory passage diseases” (Dr. Karl Thomae GmbH, priority 1988, dated 1991)
pIC50: −log10 of the molar value. “Also recorded” adds a separate entry of the source.

Columns and labels:
[1] = target: T1, muscarinic receptors, cortex (M1) (Rattus norvegicus, UniProt P08482); test: Receptor binding test in vitro, 3H-pirenzepine, cerebral cortex (M1); design: species or system Sprague-Dawley rat; details: for pIC50: 1 nanomolar 3H-pirenzepine, rat cerebral cortex homogenate, 30° C., 45 minutes, pH 7.4, read-out: IC50 3H-PZ Cortex (M1); for M1-selectivity in receptor binding studies (in words): cortex M1 compared to heart and submandible
T1 construct: After removing the heart, submandible and cerebral cortex; from tissue; host or cells: Sprague-Dawley rat cerebral cortex homogenate
T1 sequence (P08482 1-460): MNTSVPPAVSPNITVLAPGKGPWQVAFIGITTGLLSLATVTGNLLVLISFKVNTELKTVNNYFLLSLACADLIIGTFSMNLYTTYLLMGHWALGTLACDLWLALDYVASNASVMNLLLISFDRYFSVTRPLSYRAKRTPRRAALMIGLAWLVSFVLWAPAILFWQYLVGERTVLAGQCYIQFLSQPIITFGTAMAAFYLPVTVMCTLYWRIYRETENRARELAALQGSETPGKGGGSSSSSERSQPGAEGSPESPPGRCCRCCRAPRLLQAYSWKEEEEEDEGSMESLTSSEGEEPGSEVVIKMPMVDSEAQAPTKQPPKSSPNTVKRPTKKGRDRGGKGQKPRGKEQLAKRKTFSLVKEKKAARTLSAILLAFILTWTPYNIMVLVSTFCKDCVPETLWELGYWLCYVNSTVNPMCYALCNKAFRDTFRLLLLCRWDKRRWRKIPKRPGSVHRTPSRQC
Protocol: (§1) Sprague-Dawley rats having body weights of 180-220 g were used as organ donors. After removing the heart, submandible and cerebral cortex, all further steps were carried out in ice-cold Hepes-HCl buffer (pH 7.4; 100 m molar NaCl, 10 m molar MgCl2). The entire heart was comminuted using a pair of scissors. All organs were then homogenised in a Potter.
(§2) For the binding test, the organ homogenates were diluted in the following manner(ratio by volume):
(§3) The incubation of the organ homogenates was carried out at a defined concentration of the radioligand and a number of concentrations of the non-radioactive test substances in Eppendorf centrifuge tubes at 30° C. The incubation period was 45 minutes. 0.3 nanomolar ^3 H-N-methylscopolamine (^3 H-NMS, heart and submandible) or 1 nanomolar ^3 H-pirenzepine (^3 H-PZ, cerebrum) were used as the radioligand. The incubation was ended by addition of ice-cold buffer with subsequent vacuum filtration. The filter was washed with cold buffer and its radioactivity was determined. This represents the total of specific and non-specific binding of ^3 H-NMS or ^3 H-PZ. The proportion of non-specific binding was defined as that radioactivity which was bound in the presence of 1μ molar quinuclidinylbenzylate. Four-fold determinations were always carried out. The IC50 values of non-labelled test substances were determined graphically. They represent that concentration of the test substance at which the specific binding of ^3 H-NMS or ^3 H-PZ to the muscarinic receptors in the various organs was inhibited by 50%.

[2] = target: T2, muscarinic receptors, heart (M2) (Rattus norvegicus, UniProt P10980); test: Receptor binding test in vitro, 3H-N-methylscopolamine, heart (M2); design: species or system Sprague-Dawley rat
T2 construct: After removing the heart, submandible and cerebral cortex; from tissue; host or cells: Sprague-Dawley rat entire heart homogenate
T2 sequence (P10980 1-466): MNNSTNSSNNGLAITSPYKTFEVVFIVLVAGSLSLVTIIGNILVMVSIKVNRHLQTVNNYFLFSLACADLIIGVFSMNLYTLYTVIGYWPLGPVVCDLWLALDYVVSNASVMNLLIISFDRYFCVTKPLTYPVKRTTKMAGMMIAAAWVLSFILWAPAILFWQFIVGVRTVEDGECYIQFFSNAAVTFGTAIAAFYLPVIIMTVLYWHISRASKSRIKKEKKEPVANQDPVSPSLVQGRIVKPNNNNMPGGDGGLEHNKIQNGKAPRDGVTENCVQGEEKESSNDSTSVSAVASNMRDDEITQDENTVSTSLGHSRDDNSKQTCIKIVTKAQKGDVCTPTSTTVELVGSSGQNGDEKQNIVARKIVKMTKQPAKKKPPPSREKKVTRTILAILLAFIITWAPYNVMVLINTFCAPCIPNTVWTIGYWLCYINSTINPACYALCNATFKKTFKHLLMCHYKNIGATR
Protocol: as §1, §2, §3

[3] = target: T3, muscarinic receptors, submandible (M3) (Rattus norvegicus, UniProt P08483); test: Receptor binding test in vitro, 3H-N-methylscopolamine, submandible (M3); design: species or system Sprague-Dawley rat; details: 0.3 nanomolar 3H-N-methylscopolamine, rat submandible homogenate, 30° C., 45 minutes, pH 7.4; read-out: IC50 3H-NMS Submandible (M3)
T3 construct: After removing the heart, submandible and cerebral cortex; from tissue; host or cells: Sprague-Dawley rat submandibular gland ('submandible') homogenate
T3 sequence (P08483 whole entry): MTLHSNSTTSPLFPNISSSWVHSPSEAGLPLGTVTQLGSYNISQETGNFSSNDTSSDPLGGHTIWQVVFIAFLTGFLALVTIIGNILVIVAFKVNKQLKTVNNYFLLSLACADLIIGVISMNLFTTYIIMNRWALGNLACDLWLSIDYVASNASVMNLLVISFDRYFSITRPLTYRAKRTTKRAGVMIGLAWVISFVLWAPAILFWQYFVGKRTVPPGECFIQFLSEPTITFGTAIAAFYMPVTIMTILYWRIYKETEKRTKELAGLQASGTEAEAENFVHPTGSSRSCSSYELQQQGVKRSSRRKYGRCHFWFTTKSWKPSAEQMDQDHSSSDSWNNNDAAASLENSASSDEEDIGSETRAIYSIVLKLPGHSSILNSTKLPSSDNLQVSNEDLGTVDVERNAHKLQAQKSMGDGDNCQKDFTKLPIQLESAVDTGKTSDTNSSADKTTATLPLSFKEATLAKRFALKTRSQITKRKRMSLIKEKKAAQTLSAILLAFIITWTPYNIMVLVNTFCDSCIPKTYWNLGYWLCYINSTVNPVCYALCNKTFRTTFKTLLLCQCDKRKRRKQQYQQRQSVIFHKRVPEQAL
Protocol: as §1, §2, §3

[4] = test system: effect of acetylcholine on bronchi; test: Inhibition of the effect of acetylcholine on the bronchi (respiratory passage resistance, Konzett-Rossler), anaesthetised guinea-pigs; type: in vivo, guinea-pig; details: for ED50: Cavia porcellus, iv, 5 min, read-out: -log DE50 Bronchi; for selectivity of inhibition of acetylcholine-induced bronchoconstriction versus effects on heart and bladder (in words): bronchi compared to heart and bladder, guinea-pig
Protocol: (§4) 5 minutes after administration of the test substance to anaesthetised guinea-pigs, 10 μg/kg of acetylcholine was injected intravenously and, at the same time, intraarterially. At the same time, the heart rate was recorded by extracorporeal derivation of the ECG, the respiratory passage resistance by Konzett-Rossler and the contraction of the exposed bladder directly. For the inhibition of the effect of acetylcholine on the organs examined, dosage-activity curves were recorded and -log ED50 values were determined therefrom.

[5] = test system: effect of acetylcholine on heart rate; test: Inhibition of the effect of acetylcholine on the heart rate (ECG), anaesthetised guinea-pigs; type: in vivo; details: Cavia porcellus, iv, 5 min, anaesthetised guinea-pig, 10 μg/kg acetylcholine i.v. and intraarterially 5 minutes after test substance, read-out: -log DE50 Heart (converted)
Protocol: as §4

[6] = test system: effect of acetylcholine on bladder; test: Inhibition of the effect of acetylcholine on the bladder (contraction of the exposed bladder), anaesthetised guinea-pigs; type: in vivo; details: Cavia porcellus, iv, 5 min; anaesthetised guinea-pig; 10 μg/kg acetylcholine i.v. and intraarterially 5 minutes after test substance; read-out: -log DE50 Bladder (converted)
Protocol: as §4

Compound | pIC50 [1] | M1-selectivity in receptor binding studies (in words) [1] | pIC50 [2] | pIC50 [3] | ED50 [4] | selectivity of inhibition of acetylcholine-induced bronchoconstriction versus effects on heart and bladder (in words) [4] | ED50 [5] | ED50 [6]
CN1CCC(NC(=O)C2c3ccccc3NC(=O)c3ccccc32)CC1 (racemic) [Substance A, 5,11-dihydro-11-[[(1-methyl-4-piperidinyl)amino]carbonyl]-6H-dibenz[b,e]azepin-6-one] | 8.22 | marked M1 -selectivity; also recorded: lower IC50 values for the cortex M1 receptor compared to muscarinic receptors in preparations of the heart and submandible; also recorded: M1 -selectivity in in vitro receptor binding studies | 6.40 | 7.15 | 0.055 µmol/kg | marked selectivity for the inhibition of the bronchoconstriction; also recorded: even at dosages at which no effects on the heart and bladder are observed; also recorded: more strongly inhibit the cholinergically induced bronchoconstriction in functional tests than frequency effects on the heart or the bladder contraction | 0.955 µmol/kg | 0.537 µmol/kg
CN1CCC(CC(=O)C2c3ccccc3NC(=O)c3ccccc32)CC1 (racemic) [Substance B, 5,11-dihydro-11-[(1-methyl-4-piperidinyl)acetyl]-6H-dibenz[b,e]azepin-6-one] | 8.60 | marked M1 -selectivity; also recorded: lower IC50 values for the cortex M1 receptor compared to muscarinic receptors in preparations of the heart and submandible; also recorded: M1 -selectivity in in vitro receptor binding studies | 7.38 | 7.89 | 0.182 µmol/kg | marked selectivity for the inhibition of the bronchoconstriction; also recorded: even at dosages at which no effects on the heart and bladder are observed; also recorded: more strongly inhibit the cholinergically induced bronchoconstriction in functional tests than frequency effects on the heart or the bladder contraction | 0.851 µmol/kg | 0.813 µmol/kg
CN1CCN(CC(=O)C2c3ccccc3NC(=O)c3ccccc32)CC1 (racemic) [Substance C, 5,11-dihydro-11-[(4-methyl-1-piperazinyl)acetyl]-6H-dibenz[b,e]azepin-6-one] | 8.10 | marked M1 -selectivity; also recorded: lower IC50 values for the cortex M1 receptor compared to muscarinic receptors in preparations of the heart and submandible; also recorded: M1 -selectivity in in vitro receptor binding studies | 6.10 | 7.00 | 0.275 µmol/kg | marked selectivity for the inhibition of the bronchoconstriction; also recorded: even at dosages at which no effects on the heart and bladder are observed; also recorded: more strongly inhibit the cholinergically induced bronchoconstriction in functional tests than frequency effects on the heart or the bladder contraction | 1.78 µmol/kg | 5.37 µmol/kg
CN1CCC(NC(=O)C2c3ccccc3NC(=O)c3ccccc32)CC1 (single isomer, unassigned; (+)) [Substance D, (+)-5,11-dihydro-11-[[(1-methyl-4-piperidinyl)amino]carbonyl]-6H-dibenz[b,e]azepin-6-one] | 8.52 | marked M1 -selectivity; also recorded: lower IC50 values for the cortex M1 receptor compared to muscarinic receptors in preparations of the heart and submandible; also recorded: M1 -selectivity in in vitro receptor binding studies | 6.52 | 7.30 | 0.0331 µmol/kg | even at dosages at which no effects on the heart and bladder are observed; also recorded: more strongly inhibit the cholinergically induced bronchoconstriction in functional tests than frequency effects on the heart or the bladder contraction | 0.407 µmol/kg | 0.309 µmol/kg
